Key:
Caco-2 cells [1] = assay: MTT assay (mitochondrial activity), 72 h exposure; assay type: cell-based, human; details: Caco-2, MTT, Figure 6
Caco-2 cells [2] = assay: LDH leakage assay (membrane integrity), 72 h exposure; assay type: cell-based, human; details: Caco-2, LDH, Figure 6
E. faecalis ATCC 29212 = assay: micro-dilution broth method (MIC, MBC); assay type: cell-based, Enterococcus faecalis
C. jejunii ATCC 33291 = assay: micro-dilution broth method (MIC, MBC); assay type: cell-based, Campylobacter jejunii
F. nucleatum ATCC 25586 = assay: micro-dilution broth method (MIC, MBC); assay type: cell-based, Fusobacterium nucleatum
S. aureus ATCC 25923 = assay: micro-dilution broth method (MIC, MBC); assay type: cell-based, Staphylococcus aureus
P. intermedia ATCC 25611 = assay: micro-dilution broth method (MIC, MBC); assay type: cell-based
[3] = tested on: reference aerobic and anaerobic microorganisms (ATCC); assay: micro-dilution broth method, whole panel of reference strains; assay type: cell-based; details: against the majority of tested bacterial strains
H. pylori ATCC 43504 = assay: micro-dilution broth method (MIC, MBC); assay type: cell-based
M. luteus ATCC 10240 = assay: micro-dilution broth method (MIC, MBC); assay type: cell-based, Micrococcus luteus
[4] = tested on: S. epidermidis ATCC 12228; assay: micro-dilution broth method (MIC, MBC); assay type: cell-based, Staphylococcus epidermidis
B. subtilis ATCC 6633 = assay: micro-dilution broth method (MIC, MBC); assay type: cell-based, Bacillus subtilis
P. acnes ATCC 11827 = assay: micro-dilution broth method (MIC, MBC); assay type: cell-based, Propionibacterium acnes; details: P. acnes ATCC 11827, value in brackets
B. cereus ATCC 10876 = assay: micro-dilution broth method (MIC, MBC); assay type: cell-based, Bacillus cereus
[5] = tested on: C. perfringens ATCC 13124; assay: microbe, parasite or virus in culture; assay type: cell-based, Clostridium perfringens
S. aureus biofilm = assay: qualitative antibiofilm activity, confocal laser scanning microscope (CLSM); details: 500 mg/L, 24 h exposure
Caco-2 cells [6] = assay: TPC assay (total protein content), 72 h exposure; assay type: cell-based, human; details: Caco-2, TPC, Figure 6
A. israeli ATCC 10049 = assay: micro-dilution broth method (MIC, MBC); assay type: cell-based, Actinomyces israelii
K. pneumoniae ATCC 13883 = assay: micro-dilution broth method (MIC, MBC); assay type: cell-based, Klebsiella pneumoniae
V. parvula ATCC 10790 = assay: micro-dilution broth method (MIC, MBC); assay type: cell-based, Veillonella parvula
B. fragilis ATCC 10240 = assay: micro-dilution broth method (MIC, MBC); assay type: cell-based, Bacteroides fragilis
Caco-2 cells [7] = assay: NRU assay (lysosomal activity), 72 h exposure; assay type: cell-based, human; details: Caco-2, NRU, Figure 6
E. coli ATCC 25922 = assay: micro-dilution broth method (MIC, MBC); assay type: cell-based, Escherichia coli
[8] = tested on: S. typhimurium ATCC 14028; assay: micro-dilution broth method (MIC, MBC); assay type: cell-based, Salmonella Typhimurium
P. aeruginosa ATCC 9027 = assay: micro-dilution broth method (MIC, MBC); assay type: cell-based, Pseudomonas aeruginosa
[9] = E. faecalis ATCC 29212, value in brackets
[10] = C. jejunii ATCC 33291, value in brackets
[11] = F. nucleatum ATCC 25586, value in brackets
[12] = S. aureus ATCC 25923, value in brackets
[13] = P. intermedia ATCC 25611, value in brackets
[14] = H. pylori ATCC 43504, value in brackets
[15] = M. luteus ATCC 10240, value in brackets
[16] = S. epidermidis ATCC 12228, value in brackets
[17] = B. subtilis ATCC 6633, value in brackets
[18] = B. cereus ATCC 10876, value in brackets
[19] = C. perfringens ATCC 13124, value in brackets
[20] = A. israeli ATCC 10049, value in brackets
[21] = K. pneumoniae ATCC 13883, value in brackets
[22] = V. parvula ATCC 10790, value in brackets
[23] = B. fragilis ATCC 10240, value in brackets
[24] = E. coli ATCC 25922, value in brackets
[25] = S. typhimurium ATCC 14028, value in brackets
[26] = P. aeruginosa ATCC 9027, value in brackets

Question: For `Cc1ncc([N+](=O)[O-])n1CCO.Cc1ncc([N+](=O)[O-])n1CCO.O=[N+]([O-])[O-].[Ag+]` [[Ag(MTZ)2NO3]], which “lowest concentration with inhibition of mitochondrial activity” value (Caco-2 cells [1]) is on record?
Answer: 5.0 µM

Question: And the “lowest concentration with significant (p ≤ 0.05) disintegration of cellular membranes” value (Caco-2 cells [2])?
Answer: 1.0 µM

Question: And the MBC (E. faecalis ATCC 29212; E. faecalis ATCC 29212)?
Answer: 62.5 mg/L

Question: And the MIC (E. faecalis ATCC 29212; E. faecalis ATCC 29212)?
Answer: 31.3 mg/L

Question: What about the MBC (E. faecalis ATCC 29212; [9]) of the same compound?
Answer: 0.2 µM/mL

Question: And the MIC (E. faecalis ATCC 29212; [9])?
Answer: 0.1 µM/mL

Question: And the MIC (C. jejunii ATCC 33291; C. jejunii ATCC 33291)?
Answer: 31.3 mg/L

Question: And the MBC (C. jejunii ATCC 33291; [10])?
Answer: 0.4 µM/mL

Question: What about the MIC (C. jejunii ATCC 33291; [10]) of the same compound?
Answer: 0.1 µM/mL

Question: And the MBC (F. nucleatum ATCC 25586; F. nucleatum ATCC 25586)?
Answer: 0.98 mg/L

Question: And the MIC (F. nucleatum ATCC 25586; F. nucleatum ATCC 25586)?
Answer: 0.49 mg/L

Question: What about the MBC (F. nucleatum ATCC 25586; [11]) of the same compound?
Answer: 0.003 µM/mL

Question: And the MIC (F. nucleatum ATCC 25586; [11])?
Answer: 0.0015 µM/mL

Question: And the MBC (S. aureus ATCC 25923; S. aureus ATCC 25923)?
Answer: 62.5 mg/L

Question: What about the MIC (S. aureus ATCC 25923; S. aureus ATCC 25923) of the same compound?
Answer: 15.6 mg/L

Question: What about the MBC (S. aureus ATCC 25923; [12]) of the same compound?
Answer: 0.2 µM/mL

Question: And the MIC (S. aureus ATCC 25923; [12])?
Answer: 0.049 µM/mL

Question: And the MBC (P. intermedia ATCC 25611; P. intermedia ATCC 25611)?
Answer: 0.98 mg/L

Question: And the MIC (P. intermedia ATCC 25611; P. intermedia ATCC 25611)?
Answer: 0.98 mg/L

Question: What about the MBC (P. intermedia ATCC 25611; [13]) of the same compound?
Answer: 0.003 µM/mL

Question: What about the MIC (P. intermedia ATCC 25611; [13]) of the same compound?
Answer: 0.003 µM/mL

Question: And the “minimal inhibition concentration (MIC), range” value [3]?
Answer: 0.24 to 250 µg/mL

Question: And the MBC (H. pylori ATCC 43504; H. pylori ATCC 43504)?
Answer: 15.6 mg/L

Question: What about the MIC (H. pylori ATCC 43504; H. pylori ATCC 43504) of the same compound?
Answer: 15.6 mg/L

Question: And the MBC (H. pylori ATCC 43504; [14])?
Answer: 0.049 µM/mL

Question: And the MIC (H. pylori ATCC 43504; [14])?
Answer: 0.049 µM/mL

Question: What about the MBC (M. luteus ATCC 10240; M. luteus ATCC 10240) of the same compound?
Answer: 62.5 mg/L

Question: And the MIC (M. luteus ATCC 10240; M. luteus ATCC 10240)?
Answer: 7.8 mg/L

Question: What about the MBC (M. luteus ATCC 10240; [15]) of the same compound?
Answer: 0.2 µM/mL

Question: What about the MIC (M. luteus ATCC 10240; [15]) of the same compound?
Answer: 0.025 µM/mL

Question: What about the MBC ([4]; S. epidermidis ATCC 12228) of the same compound?
Answer: 62.5 mg/L

Question: And the MIC ([4]; S. epidermidis ATCC 12228)?
Answer: 7.8 mg/L

Question: What about the MBC [4, 16] of the same compound?
Answer: 0.2 µM/mL

Question: What about the MIC [4, 16] of the same compound?
Answer: 0.025 µM/mL

Question: And the MBC (B. subtilis ATCC 6633; B. subtilis ATCC 6633)?
Answer: 15.6 mg/L

Question: And the MIC (B. subtilis ATCC 6633; B. subtilis ATCC 6633)?
Answer: 15.6 mg/L

Question: And the MBC (B. subtilis ATCC 6633; [17])?
Answer: 0.049 µM/mL

Question: And the MIC (B. subtilis ATCC 6633; [17])?
Answer: 0.049 µM/mL

Question: And the MBC (P. acnes ATCC 11827)?
Answer: 0.4 µM/mL

Question: And the MIC (P. acnes ATCC 11827)?
Answer: 0.4 µM/mL

Question: And the MIC (B. cereus ATCC 10876; B. cereus ATCC 10876)?
Answer: 62.5 mg/L

Question: And the MBC (B. cereus ATCC 10876; [18])?
Answer: 0.4 µM/mL

Question: What about the MIC (B. cereus ATCC 10876; [18]) of the same compound?
Answer: 0.2 µM/mL

Question: And the MBC ([5]; C. perfringens ATCC 13124)?
Answer: 1.95 mg/L

Question: And the MIC ([5]; C. perfringens ATCC 13124)?
Answer: 1.95 mg/L

Question: And the MBC [5, 19]?
Answer: 0.006 µM/mL

Question: What about the MIC [5, 19] of the same compound?
Answer: 0.006 µM/mL

Question: And the “effect on biofilm (CLSM, qualitative)” value (S. aureus biofilm)?
Answer: significantly reduced biofilm density

Question: What about the “lowest concentration with decreased total protein content” value (Caco-2 cells [6]) of the same compound?
Answer: 10.0 µM

Question: And the MBC (A. israeli ATCC 10049; A. israeli ATCC 10049)?
Answer: 3.9 mg/L

Question: And the MIC (A. israeli ATCC 10049; A. israeli ATCC 10049)?
Answer: 0.49 mg/L

Question: What about the MBC (A. israeli ATCC 10049; [20]) of the same compound?
Answer: 0.012 µM/mL

Question: And the MIC (A. israeli ATCC 10049; [20])?
Answer: 0.0015 µM/mL

Question: And the MBC (K. pneumoniae ATCC 13883; K. pneumoniae ATCC 13883)?
Answer: 31.3 mg/L

Question: And the MIC (K. pneumoniae ATCC 13883; K. pneumoniae ATCC 13883)?
Answer: 15.6 mg/L

Question: And the MBC (K. pneumoniae ATCC 13883; [21])?
Answer: 0.1 µM/mL

Question: What about the MIC (K. pneumoniae ATCC 13883; [21]) of the same compound?
Answer: 0.049 µM/mL

Question: What about the MBC (V. parvula ATCC 10790; V. parvula ATCC 10790) of the same compound?
Answer: 1.95 mg/L

Question: What about the MIC (V. parvula ATCC 10790; V. parvula ATCC 10790) of the same compound?
Answer: 1.95 mg/L

Question: What about the MBC (V. parvula ATCC 10790; [22]) of the same compound?
Answer: 0.006 µM/mL

Question: And the MIC (V. parvula ATCC 10790; [22])?
Answer: 0.006 µM/mL

Question: What about the MBC (B. fragilis ATCC 10240; B. fragilis ATCC 10240) of the same compound?
Answer: 0.98 mg/L

Question: What about the MIC (B. fragilis ATCC 10240; B. fragilis ATCC 10240) of the same compound?
Answer: 0.98 mg/L

Question: What about the MBC (B. fragilis ATCC 10240; [23]) of the same compound?
Answer: 0.003 µM/mL

Question: What about the MIC (B. fragilis ATCC 10240; [23]) of the same compound?
Answer: 0.003 µM/mL

Question: What about the “lowest concentration with inhibition of lysosomal activity” value (Caco-2 cells [7]) of the same compound?
Answer: 5.0 µM

Question: And the MBC (E. coli ATCC 25922; E. coli ATCC 25922)?
Answer: 31.3 mg/L

Question: What about the MIC (E. coli ATCC 25922; E. coli ATCC 25922) of the same compound?
Answer: 15.6 mg/L

Question: And the MBC (E. coli ATCC 25922; [24])?
Answer: 0.1 µM/mL

Question: And the MIC (E. coli ATCC 25922; [24])?
Answer: 0.049 µM/mL

Question: What about the MBC ([8]; S. typhimurium ATCC 14028) of the same compound?
Answer: 31.3 mg/L

Question: And the MIC ([8]; S. typhimurium ATCC 14028)?
Answer: 15.6 mg/L

Question: What about the MBC [8, 25] of the same compound?
Answer: 0.1 µM/mL

Question: And the MIC [8, 25]?
Answer: 0.049 µM/mL

Question: What about the MBC (P. aeruginosa ATCC 9027; P. aeruginosa ATCC 9027) of the same compound?
Answer: 15.6 mg/L

Question: And the MIC (P. aeruginosa ATCC 9027; P. aeruginosa ATCC 9027)?
Answer: 7.8 mg/L

Question: What about the MBC (P. aeruginosa ATCC 9027; [26]) of the same compound?
Answer: 0.049 µM/mL

Question: What about the MIC (P. aeruginosa ATCC 9027; [26]) of the same compound?
Answer: 0.025 µM/mL

Source: paper PMC8869984, “Multifunctional Silver(I) Complexes with Metronidazole Drug Reveal Antimicrobial Properties and Antitumor Activity against Human Hepatoma and Colorectal Adenocarcinoma Cells” (Cancers, 2022)
